Results published in patent US9370529B2, “Tannin inhibitors of HIV” (priority 2012, dated 2016).

Columns and labels:
[1] = Cell-viability study (ATPLite Assay); assay type: cell-based; conditions: human; HeLa37 cells, 40 h after treatment initiation
Protocol: HeLa37 cells were plated and treated with IA or IB as described above. Cell viability was monitored at 40 h after treatment initiation by ATPLite Assay (Packard Biosciences) per manufacturer's instructions.

[2] = test system: CXCR4 tropic HIV NL4-3; assay: HIV-infection study in HeLa37 cells (HIV antigen-positive cell count, % control); assay type: cell-based, HIV-1; conditions: for TI (therapeutic index, cytotoxicity/antiviral activity): CC50/IC50; for IC50: Human immunodeficiency virus 1, NL43, HeLa37 cells, 40 h, MOI=0.01, FIG. 1/FIG. 2, read-out: IC50 (anti-HIV activity)
Protocol: Stocks of HIV-1 were generated by transfecting a 150 cm plate of 80% confluent HEK 293T cells with 75 μg of the HIV molecular clone pNL4-3 by using the CaPO4 procedure of F. L. Graham et al., J. Gen. Viol., 36, 59 (1977). Supernatants were collected at 48-h post-transfection, clarified to remove cell debris and frozen at −80° C. until needed. Virus production was assessed by reverse transcriptase activity in the viral stocks and by the single round of infection assay in HeLa37 cells described below. RT assays were performed as described by R. L. Wiley, PNAS USA, 83, 5038 (1986).
(§1) All extracts or fractions were resuspended in DMSO. 2.5×10^2 infectious particles of HIV (MOI=0.01) were combined with the concentrations of IA or IB noted in the figures. The amount of DMSO was adjusted so that equivalent concentrations of DMSO were used in all wells. […] The tannin and HIV mixture was added to 2.5×10^4 cells/well of HeLa37 cells in a 48-well format. The cells were maintained for 40 h at 37° C. in a CO2 incubator. Cells were fixed in 75% acetone/25% water and immunostained for HIV antigens with human anti-HIV antisera (1:500) followed by HRP-conjugated goat anti-human IgG (1:500). 3-amino-9-ethyl-carbazole was used as the horse radish peroxidase substrate. Plates were dried and wells were counted for the number of HIV antigen-positive cells.

[3] = test system: CCR5 tropic HIV AD8; assay: HIV-infection study in HeLa37 cells, CCR5 tropic virus; assay type: cell-based; conditions: FIG. 2; equivalent concentrations
Protocol: as §1

Row | SMILES | CC50 at 40 h [1] [nM] | TI (therapeutic index, cytotoxicity/antiviral activity) [2] | IC50 [2] [nM] | Inhibition of CXCR4 (NL4-3) tropic HIV strain ([2]; FIG. 2) | Enhancement of the antiviral activity of AMD3100 ([2]; combination with 3 μM AMD3100, increasing concentrations of IB, HIV NL-4-3, FIG. 3) | Inhibition of CCR5 (AD8) tropic HIV strain [3]
1 | CO[C@@H]1OC2COC(=O)c3cc(O)c(O)c(O)c3-c3c(cc(O)c(O)c3O)C(=O)O[C@H]2C(O)C1O (stereo partly drawn) [Tannin IA, (11aR,13S,14R,15R,15aS)-2,3,4,5,6,7,14,15-octahydroxy-13-methoxy-11,11a,13,14,15,15a-hexahydrodibenzo[g,i]pyrano[3,2-b][1,5]dioxacycloundecine-9,17-dione] | ~100000 | ~909 | ~110 | – | – | –
2 | CO[C@@H]1OC2COC(=O)c3cc(O)c(O)c(O)c3-c3c(cc(O)c(O)c3O)C(=O)O[C@H]2C(OC(=O)c2cc(O)c(O)c(O)c2)C1OC(=O)c1cc(O)c(O)c(O)c1 (stereo partly drawn) [Tannin IB, (11aR,13S,14R,15S,15aR)-2,3,4,5,6,7-hexahydroxy-13-methoxy-9,17-dioxo-9,11,11a,13,14,15,15a,17-octahydrodibenzo[g,i]pyrano[3,2-b][1,5]dioxacycloundecine-14,15-diyl-bis (3,4,5-trihydroxybenzoate)] | > 100000 | about 900 | ~120 | effectively able to inhibit | more than a log | effectively able to inhibit
